The test system of one data set is CHO-Target 1 cells. The data set is described as follows: pH shift cytotoxicity assay / HCl switch RTCA killing assay (xCELLigence). Format: cell-based. The conditions noted are these: added about 3 hours after effector cells, E/T 1:1. The protocol: The cytotoxic activity of transduced T cells before and after pH change by addition of NaHCO3 or NaOH was measured using the xCELLigence System. Briefly, one day before the experiment, target cells (CHO cells stably transfected with a construct to express Target 1 on the cell surface (CHO-Target 1 cells)), were seeded into a 96-well E-plate (ACEA; San Diego, CA) at 10,000 cells/well with X-VIVO 15 media containing 40 mM HEPES and 40 mM PIPES, pH 6.7. Cryopreserved effector cells previously transduced with either lentiviral particles containing the nucleic acid encoding T1B or C1 (T1BVP and C1VP, respectively) produced as discussed above, were thawed and cultured for two days in X-VIVO 15 media containing 100 IU/mL of IL-2 (R&D Systems, Minneapolis, MN). On the day of the experiment, cells transduced with T1BVP or C1VP were washed and resuspended in X-VIVO 15 media containing 40 mM HEPES and 40 mM PIPES, pH 6.7 and then added into the experimental wells at effector cell/target cell ratios (E/T) of 1:1.
Impedance readings measured on the xCELLigence System (ACEA) were taken every 5 minutes and reported as the Cell Index (CI) to quantitate cell confluency as a measure of cell proliferation/cell lysis. Approximately 3 hours after effector cell addition, 8 μl of 7.5% NaHCO3 or 14 μl of 0.5 M NaOH was added into the wells with X-VIVO 15 media containing 40 mM HEPES and 40 mM PIPES, pH 6.7 to increase the pH from 6.7 to 7.4. Impedance readings were continued for approximately 20 hours after effector cell addition. Percentage of specific cytolysis was calculated as follows ((CI Target+C1VP transduced effector T cells)−(CI Target+T1BVP transduced effector T cells))/(CI Target+C1VP transduced effector T cells)×100.
The cytotoxic activity of transduced T cells before and after pH change by addition of HCl was measured using the xCELLigence System. Briefly, one day before the experiment, CHO-Target 1 cells were seeded into a 96 well E-plate at 10,000 cells/well with X-VIVO 15 media containing 40 mM HEPES and 40 mM PIPES, pH 7.4. Cryopreserved effector cells previously transduced with either C1VP or T1BVP, were thawed and cultured for two days in X-VIVO 15 media containing 100 IU/mL of IL-2. On the day of the experiment, cells transduced with T1BVP or C1VP were washed and resuspended in X-VIVO 15 media containing 40 mM HEPES and 40 mM PIPES, pH 7.4 and then added into experimental wells at effector cell/target cell ratios (E/T) of 1:1.
Impedance readings were taken every 5 minutes and reported as the Cell Index (CI). […] Impedance readings were continued for approximately 20 hours after effector cell addition. Percentage of specific cytolysis was calculated as follows ((CI Target+C1VP transduced effector T cells)−(CI Target+T1BVP transduced effector T cells))/(CI Target C1VP)×100.

The conditions of data set [1]: 50-milliliter bolus; cited from earlier work.
For data set [2] the following is noted: 1.5 hours post ip administration, n=3, relative to PBS-treated mice.
From the text: Phenol red is a pH indicator which undergoes a pH-dependent color transition. […] A solution of phenol red has a yellow color at a pH of 6.4 or below, an orange color around pH 7.0, a red color around pH 7.4, and a purple color above pH 7.8.
The CHO xenograft tumor was excised from each mouse. The xenograft tumors were split into two halves with a scalpel and placed on a petri dish. The tumor tissue halves were then cut/sliced repeatedly using the scalpel. Water or 0.05% phenol red solution (50 mg phenol red/100 ml water) was added dropwise to each tumor half, respectively. The color was noted and images were taken of the treated tumor xenografts and of the phenol red solution remaining on the petri plate once the tumor xenograft samples were removed.
Data set [3] concerns cathepsin B, L, S, K, V, and D. The conditions noted are these: 1 ml/mouse 1 M ip, 30 min post administration, n=3, vs PBS.
From the text: Fortunately, the relative protease activity of cathepsin is higher at lower pH and lower at higher pH. Therefore, the measurement of intratumoral cathepsin activity can serve as a surrogate measure of the pH of the tumor microenvironment. To measure in vivo activities of cathepsin B, L, S, K, V, and D, the near-infrared ProSense 750 FAST probe (PerkinElmer) was used.
Mice were handled in accordance with Institutional Animal Care and Use Committee approved protocols. Subcutaneous (sc) Chinese Hamster Ovary (CHO) tumor xenografts were established in the hind flank of 12-14 week old female B-NSG mice (NOD-PrkdcscidIl2rgtm1/Bcgen (Beijing Biocytogen Co. Ltd.). Briefly, cultured CHO cells (ATCC, Manassas, VA) were washed in DPBS (ThermoFisher), counted, resuspended in cold DPBS and mixed with an appropriate volume of Matrigel ECM (Corning; final concentration 5 mg/mL) at a concentration of 1.5×10^6 cells/200 μl on ice.
Animals were prepared for injection using standard approved anesthesia with hair removal (Nair) prior to injection. 200 μl of the cell suspension in ECM was injected sc into the rear flanks of the mice. Once tumors were palpable, the tumors were measured using calipers 2 times/week. Tumor volume was calculated using the following equation: (longest diameter*shortest diameter^2)/2. […]
The next data set has as its system CHO-Target 1. The data set is described as follows: xCELLigence cytotoxicity of MRB-CAR T cells at pH 6.7 vs pH 7.4, CHO-Target 1. Format: cell-based. The settings on record: E/T 3:1, 1:1, 0.3:1; about 40 hours. The procedure:
The cytotoxic activity of the candidate MRB-CARs against target cells expressing either Target 1 or Target 2 (CHO-Target 1 and CHO-Target 2, respectively) was analyzed at a pH of 7.4 (normal tissue) or a pH of 6.7 (reduced pH of a tumor microenvironment) by xCELLigence System (ACEA). Briefly, target cells expressing Target 1 or Target 2 were seeded to a 96-well E-plate at 20,000 cells/well with tumor conditional or normal medium one day before the experiment. Effector cells were rested for two days in human T cell medium containing 100 IU/mL of IL-2 and added into experimental wells containing Target cells at effector cell/target cell ratios (E/T) of 3:1, 1:1, and 0.3:1.
Impedance readings were taken every 5 minutes for approximately 40 hours after effector cell addition and impedance was reported as the Cell Index (CI). Percentage of specific cytolysis was calculated as follows ((CI Target+Control virus transduced effector T cells)−(CI Target+effector T cells transduced with CARs directed to Target 1 or Target 2))/(CI Target+Control virus transduced effector T cells)×100.

On to `O=C([O-])O.[Na+]` [sodium bicarbonate], for which the “effect on cytotoxic activity of MRB-CAR T cells of raising media pH from 6.7 to 7.4” value in the data set with CHO-Target 1 cells is listed as “inhibited the cytotoxic activity”. The “rise of serum pH” value in data set [1] is recorded as “approximately 0.1 pH unit”. In data set [2], the “color of phenol red indicator on excised tumor tissue” value is “from yellow/orange to red”. The “intratumoral cathepsin activity (RFU), surrogate of tumor microenvironment pH” value in data set [3] is “decreased cathepsin activity”.

B1: MRB-CAR T1A: anti-Target 1 microenvironment restricted CAR; VH SEQ ID NO:281, Linker 1, VL SEQ ID NO:282; CD28 stalk/TM, ICΔ, CD3Z (protein)
chain: EVQLVQSGAEVKKPGATVKISCKVSGYSFWGATMNWIRQPPGKGLEWIGLIKPSNGGTSYNQKFKGRVTISADKSISTAYLQWSSLKASDTAMYYCAHGHYESYEAMDYWGQGTLVTVSSGGGGSGGGGSGGGGSDIQMTQSPSSLSASVGDRVTITCKASQDVVSAVAWYQQKPGQAPRLLIYWQDTRHTGVPSRFSGSGSGTEFTLTISSLQPDDFATYYCQEHFSPPLTFGQGTKVEIKFWVLVVVGGVLACYSLLVTVAFIIFWVRSKRSRLLHSDYMNMTPRRPGPTRKHYQAYAAARDFAAYRSRVKFSRSADAPAYQQGQNQLYNELNLGRREEYDVLDKRRGRDPEMGGKPRRKNPQEGLYNELQKDKMAEAYSEIGMKGERRRGKGHDGLYQGLSTATKDTYDALHMQALPPR
notes: anti-Target 1 microenvironment restricted CAR; CD28 stalk/TM, ICΔ, CD3Z
In the case of B1, in the data set with CHO-Target 1, the “cytotoxic activity on target cells at pH 6.7 versus pH 7.4” value was “more effective at lysing target cells at a pH of 6.7 than at a pH of 7.4”.

The record behind these values is US12258574B2, “Methods and compositions for transducing lymphocytes and regulating the activity thereof” (Exuma Biotech Corp., priority 2016, dated 2025).
